# According to PMC9856044 (Biomolecules, 2023):
# Assays:
# [1] = tested on: SK-OV-3 cells; test: MTT cytotoxicity assay, SK-OV-3; format: cell-based; settings: Homo sapiens, SK-OV-3, 72 h incubation, ± SD
# Method: (§1) Human cervical carcinoma HeLa (GIBCO BRL, Invitrogen, Waltham, MA, USA), human melanoma MDA-MB-435S and human ovarian adenocarcinoma SK-OV-3 (ATCC-LGC Standards GmbH, Wesel, Germany) cell lines were purchased from indicated cell culture banks. Normal human skin fibroblasts were isolated from the upper arm of a donor at the Neurochemical Laboratory, Department of Chemistry and Biochemistry, School of Medicine, University of Zagreb. HeLa, MDA-MB-435S and fibroblasts were grown in Dulbecco’s Modified Eagle’s Medium (DMEM; Sigma-Aldrich, St. Louis, MI, USA) while the SK-OV-3 cell line was grown in McCoy’s 5A medium (Capricorn Scientific, Ebsdorfergrund, Germany). All media were supplemented with 10% fetal bovine serum (FBS; Sigma-Aldrich) and 50 I.U./mL penicillin and 50 μg/mL streptomycin. Cells were cultured in a humidified atmosphere of 5% CO2 at 37 °C and were sub-cultured every 3–4 days. HeLa, MDA-MB-435S, SK-OV-3 cells and fibroblasts were seeded in 96 well plates. Twenty-four hours later the cells were treated, in quadruplicate, with different concentrations of compounds (dissolved in DMSO, kept at 4 °C and protected from light). Following 72 h of incubation at 37 °C, the medium was aspired and modified 3-(4,5-dimethylthiazol-2-yl)-2,5-diphenyltetrazolium bromide (MTT) assay was used to determine the cytotoxic effect of the tested compounds. Three hours later, formazan crystals were dissolved in DMSO (0.17 mL/well), the plates were mechanically agitated for 20 min and the optical density at 600 nm was determined on a microtiter plate reader (Awareness Technology Inc., Palm City, FL, USA). The experiments were repeated three times.
# [2] = molecular target: Tel22 (5′-AGGG(TTAGGG)3–3′) G-quadruplex; test: Fluorimetric titration with Tel22 in potassium phosphate buffer (K+ solution); format: binding, human
# Method: Materials. Polynucleotides were purchased as noted: poly A–poly U, calf thymus ctDNA, poly(dAdT)2 and poly(dGdC)2 (Sigma-Aldrich, St. Louis, MI, USA). Polynucleotides were dissolved in Na-cacodylate buffer, I = 0.05 mol dm^−3, pH = 7.0. The calf thymus ctDNA was additionally sonicated and filtered through a […]. Polynucleotide concentration was determined spectroscopically as the concentration of phosphates. Spectrophotometric titrations were performed at pH = 7.0 (I = 0.05 mol dm^−3, sodium cacodylate buffer) by adding aliquots of polynucleotide solution into the solution of the studied compound for fluorimetric experiments and CD experiments were done by adding aliquots of the compound stock solution into the solution of a polynucleotide. In fluorimetric experiments, an excitation wavelength of λexc = 425, 431, 423, 427, 406 and 407 nm, respectively, was used to avoid the inner filter effect caused due to increasing absorbance of the polynucleotide. Emission was collected in the range λem = 400–700 nm. Values for Ka obtained by processing titration data using the Scatchard equation [27], all have satisfactory correlation coefficients (≥0.98).
# (§2) Thermal melting curves for DNA, RNA and their complexes with studied compounds were determined as previously described by following the absorption change at 260 nm as a function of temperature. The absorbance of the ligands was subtracted from every curve and the absorbance scale was normalized. Tm values are the midpoints of the transition curves determined from the maximum of the first derivative and checked graphically by the tangent method. The ∆Tm values were calculated by subtracting Tm of the free nucleic acid from Tm of the complex. Every ∆Tm value here reported was the average of two measurements. The error in ∆Tm is ±0.5 °C. 5′-AGGG(TTAGGG)3–3′(Tel22) was obtained from IDT (Integrated DNA Technologies, Coralville, IA, USA). Tel22 was dissolved in 0.1 M either in sodium cacodylate or potassium phosphate buffer. The starting Tel22 oligonucleotide solution was first heated up to 95 °C for 10 min, then slowly cooled to 10 °C at the cooling rate of 1 °C/min to allow DNA oligonucleotide to adopt a G-quadruplex structure. The G-quadruplex structure was confirmed by thermal melting and CD spectra. The concentration of G quadruplex was expressed in terms of oligonucleotide structure. In fluorimetric titrations, aliquots of Tel 22 solution were added to the solution of ligands (c ~ 2 × 10^−7 M, in SI).
# Binding constants (log Ka) and stoichiometry of complexes were calculated from the fluorimetric data using non-linear least-square program SPECFIT [46], in the concentration range that corresponded to 20–80% complex formed.
# [3] = tested on: HeLa cells; test: MTT cytotoxicity assay, HeLa; format: cell-based; settings: Homo sapiens, 72 h incubation, ± SD
# Method: as §1
# [4] = tested on: Tel22 G-quadruplex; test: Thermal melting of Tel22 in potassium phosphate buffer; format: binding, human; settings: Tel22, r = 1.0, potassium phosphate buffer, pH = 7.0, I = 0.1 mol dm^−3; error ±0.5 °C
# Method: as §2
# [5] = Solubility and aggregation (UV/Vis characterization); format: physicochemical; settings: sodium cacodylate buffer, I = 0.05 mol dm^−3, pH = 7.0; UV/Vis
# Method: The UV/vis spectra were recorded on a Varian Cary 100 Bio spectrophotometer (Agilent, Santa Clara, CA, USA), CD spectra on JASCO J815 spectrophotometer (ABL&E Handels GmbH, Wien, Austria) and fluorescence spectra on a Varian Cary Eclipse spectrophotometer (Agilent, Santa Clara, CA, USA) at 25 °C using appropriate 1 cm path quartz cuvettes.
# Studied compounds, 1–6 were soluble (c = 8 × 10^−4 mol dm^−3) in DMSO. […] Therefore, the stock solution of 2 was prepared fresh before use. The experiments were done in aqueous buffer (sodium cacodylate buffer, I = 0.05 mol dm^−3; pH = 7.0).
# However, the shape of UV/Vis spectra of cyanine 2 changed with increasing concentration (calibration experiment in Figure S2 in SI). In addition to the dominant maximum at 432 nm (which most likely corresponds to the monomer form of the dye), the absorption band at 413 nm becomes more intense (Figure S2 in SI). Presumably, it corresponds to the aggregated form (H-aggregate). Based on the existence of an absorption band at 432 nm, only the monomer dye form is visible at high temperature (95 °C) (Figure S8b in SI). However, after cooling the solution to 25 °C, an additional band appears at 413 nm, which corresponds to the aggregated dye form.
Structure (SMILES),IC50 [1] [µM],"logKa (L + G ⇆ LG, 1:1 complex) ([2]; Tel22, potassium phosphate buffer, pH = 7.0, I = 0.1 mol dm^−3, SPECFIT fit)",IC50 [3] [µM],∆Tm [4] [°C],Aggregation in aqueous buffer [5],"log Ka (indicated by steeper slope of titration curves) ([2]; Tel22, K+ solution, no accurate fit possible)"
"CN1/C(=C/c2[se]c3ccccc3[n+]2C)Sc2ccccc21 [Compound 3, 3-methyl-2-((3-methylbenzo[d]thiazol-2(3H)-ylidene)methyl)benzo[d][1,3]selenazol-3-ium methosulphate]",0.548 ± 0.102,6.88 ± 0.05,1.02 ± 0.672,0.5,do not form aggregates,–
"C[n+]1c(/C=C2\Sc3ccccc3N2CCCS)[se]c2ccccc21 [Compound 5, 2-((3-(3-mercaptopropyl)benzo[d]thiazol-2(3H)-ylidene)methyl)-3-methylbenzo[d][1,3]selenazol-3-ium methosulphate]",29.6 ± 5.72,–,27.9 ± 4.14,5.1,significantly aggregate,≥ 7
